The source of these data is US10125139B2, “Pesticidally active polycyclic derivatives with sulfur substituted five-membered ring heterocycles” (Syngenta Participations AG, priority 2015, dated 2018).

What is called melting point is the temperature of the solid-liquid transition. Usually mortality stands for the percentage killed. Low values mean a weak lethal effect, high ones a strong lethal effect.

Data set [1] deals with Spodoptera littoralis (Egyptian Cotton Leaf Worm). Nature of the data set: Example B9: Spodoptera littoralis, cotton leaf discs, L1 larvae. The format is in vivo. The settings on record: for percent control (mortality, anti-feedant effect or growth inhibition) at 200 ppm: Spodoptera littoralis, foliar, 72 h, application rate of 200 ppm, 3 days after infestation, L1 larvae. As to the method:
Example B9: Spodoptera littoralis (Egyptian Cotton Leaf Worm)
Cotton leaf discs were placed onto agar in 24-well microtiter plates and sprayed with aqueous test solutions prepared from 10,000 ppm DMSO stock solutions. After drying the leaf discs were infested with five L1 larvae. The samples were assessed for mortality, anti-feeding effect, and growth inhibition in comparison to untreated samples 3 days after infestation. Control of Spodoptera littoralis by a test sample is given when at least one of the categories mortality, anti-feedant effect, and growth inhibition is higher than the untreated sample.
(§1) Insecticidal action against Diabrotica balteata (Corn root worm), Plutella xylostella (Diamond black moth), and Spodoptera littoralis (Egyptian cotton leaf worm). The tests were carried out as described in biological examples B2, B8 and B9, respectively, with the larval feeding/contact activity (mortality only) being reported as Breakpoint (BP80) values in parts per million (i.e. the lowest concentration which gives 80% larval mortality).

The subject of data set [2] is Plutella xylostella (Diamond Back Moth). Nature of the data set: Example B8: Plutella xylostella, artificial diet, L2 larvae. It counts as in vivo. The settings on record: for percent effect (mortality or growth inhibition) at 200 ppm: Plutella xylostella, 120 h, application rate of 200 ppm, 5 days after infestation, L2 larvae, read-out: effect in at least one of the two categories (mortality or growth inhibition). As to the method:
Example B8: Plutella xylostella (Diamond Back Moth)
24-well microtiter plates with artificial diet were treated with aqueous test solutions prepared from 10,000 ppm DMSO stock solutions by pipetting. After drying, the plates were infested with L2 larvae (10 to 15 per well). The samples were assessed for mortality and growth inhibition in comparison to untreated samples 5 days after infestation. The following compounds gave an effect of at least 80% in at least one of the two categories (mortality or growth inhibition) at an application rate of 200 ppm:
as §1

In data set [3] the test system is Spodoptera littoralis (Egyptian Cotton Leaf Worm). The data set is described as follows: Example B10: Spodoptera littoralis systemic activity, lettuce grown on treated agar. The format is in vivo. The settings on record: 144 h, test rate of 12.5 ppm, 6 days after infestation, read-out: effect in at least one of the three categories (mortality, anti-feeding, or growth inhibition). The text has this: Example B10: Spodoptera littoralis (Egyptian Cotton Leaf Worm) Systemic Activity
Test compounds were applied by pipette from 10,000 ppm DMSO stock solutions into 24-well plates and mixed with agar. Lettuce seeds were placed onto the agar and the multi well plate was closed by another plate which contained also agar. After 7 days the compound was absorbed by the roots and the lettuce grew into the lid plate. The lettuce leaves were then cut off into the lid plate. Spodoptera eggs were pipetted through a plastic stencil onto a humid gel blotting paper and the lid plate was closed with it. The samples were assessed for mortality, anti-feedant effect and growth inhibition in comparison to untreated samples 6 days after infestation. The following compounds gave an effect of at least 80% in at least one of the three categories (mortality, anti-feeding, or growth inhibition) at a test rate of 12.5 ppm: […]

Data set [4] relates to Diabrotica balteata (Corn Root Worm). The data set is described as follows: Example B2: Diabrotica balteata, sprayed maize sprouts, L2 larvae. The format is in vivo. The settings on record: for percent effect (mortality or growth inhibition) at 200 ppm: Diabrotica balteata, 96 h, application rate of 200 ppm, 4 days after infestation, L2 larvae, read-out: effect in at least one of the two categories (mortality or growth inhibition). As for the experimental part: Example B2: Diabrotica balteata (Corn Root Worm)
Maize sprouts placed onto an agar layer in 24-well microtiter plates were treated with aqueous test solutions prepared from 10,000 ppm DMSO stock solutions by spraying. After drying, the plates were infested with L2 larvae (6 to 10 per well). The samples were assessed for mortality and growth inhibition in comparison to untreated samples 4 days after infestation. The following compounds gave an effect of at least 80% in at least one of the two categories (mortality or growth inhibition) at an application rate of 200 ppm:
as §1

The test system of data set [5] is Myzus persicae (Green Peach Aphid). Nature of the data set: Example B5: Myzus persicae feeding/contact activity, sunflower leaf discs. The format is in vivo. The settings on record: foliar, 144 h, application rate of 200 ppm, 6 days after infestation. As to the method: Example B5: Myzus persicae (Green Peach Aphid): Feeding/Contact Activity
Sunflower leaf discs were placed onto agar in a 24-well microtiter plate and sprayed with aqueous test solutions prepared from 10,000 ppm DMSO stock solutions. After drying, the leaf discs were infested with an aphid population of mixed ages. The samples were assessed for mortality 6 days after infestation.

The subject of data set [6] is Euschistus heros (Neotropical Brown Stink Bug). The data set is described as follows: Example B3: Euschistus heros, sprayed soybean leaves, N2 nymphs. To be noted: 120 h, application rate of 200 ppm, 5 days after infestation, read-out: effect in at least one of the two categories (mortality or growth inhibition). The format is in vivo. As to the method: Example B3: Euschistus heros (Neotropical Brown Stink Bug)
Soybean leaves on agar in 24-well microtiter plates were sprayed with aqueous test solutions prepared from 10,000 ppm DMSO stock solutions. After drying the leaves were infested with N2 nymphs. The samples were assessed for mortality and growth inhibition in comparison to untreated samples 5 days after infestation. The following compounds gave an effect of at least 80% in at least one of the two categories (mortality or growth inhibition) at an application rate of 200 ppm: […]

The test system of data set [7] is Bemisia tabaci (Cotton White Fly). The data set is described as follows: Example B1: Bemisia tabaci feeding/contact activity, cotton leaf discs. The format is in vivo. To be noted: foliar, 144 h, application rate of 200 ppm, 6 days after incubation, adult white flies. As for the experimental part:
Example B1: Bemisia tabaci (Cotton White Fly): Feeding/Contact Activity
Cotton leaf discs were placed on agar in 24-well microtiter plates and sprayed with aqueous test solutions prepared from 10,000 ppm DMSO stock solutions. After drying the leaf discs were infested with adult white flies. The samples were checked for mortality 6 days after incubation.

The subject of data set [8] is Frankliniella occidentalis (Western Flower thrips). The data set is described as follows: Example B4: Frankliniella occidentalis feeding/contact activity, sunflower leaf discs. To be noted: foliar, 168 h, application rate of 200 ppm, 7 days after infestation, population of mixed ages. The format is in vivo. As to the method: Example B4: Frankliniella occidentalis (Western Flower thrips): Feeding/Contact Activity
Sunflower leaf discs were placed on agar in 24-well microtiter plates and sprayed with aqueous test solutions prepared from 10,000 DMSO stock solutions. After drying the leaf discs were infested with a Frankliniella population of mixed ages. The samples were assessed for mortality 7 days after infestation.

The subject of data set [9] is Thrips tabaci (Onion thrips). The data set is described as follows: Example B12: Thrips tabaci feeding/contact activity, sunflower leaf discs. The format is in vivo. The settings on record: foliar, 144 h, application rate of 200 ppm, 6 days after infestation. As for the experimental part: Example B12: Thrips tabaci (Onion thrips) Feeding/Contact Activity
Sunflower leaf discs were placed on agar in 24-well microtiter plates and sprayed with aqueous test solutions prepared from 10,000 ppm DMSO stock solutions. After drying the leaf discs were infested with a thrips population of mixed ages. The samples were assessed for mortality 6 days after infestation.

Molecules are shown by their SMILES.

With `CCS(=O)(=O)c1ncsc1-c1nc2cc(C(F)(F)F)ncc2n1C` [Example I-2], the melting point is 169 to 171 °C.
On the same count and under the same terms, then `CCS(=O)(=O)c1nc(Br)sc1-c1nc2cc(C(F)(F)F)ncc2n1C` [Example I-4, 2-bromo-4-ethylsulfonyl-5-[3-methyl-6-(trifluoromethyl)imidazo[4,5-c]pyridin-2-yl]thiazole], with 248 to 250 °C.
In turn, `CCS(=O)(=O)c1cc(I)sc1-c1nc2cc(C(F)(F)F)nnc2n1C` [Example I-6, 6-(3-ethylsulfonyl-5-iodo-2-thienyl)-7-methyl-3-(trifluoromethyl)imidazo[4,5-c]pyridazine] had a percent control (mortality, anti-feedant effect or growth inhibition) at 200 ppm in data set [1] not below 80%. The percent effect (mortality or growth inhibition) at 200 ppm in [2] and in data set [4] was not below 80% throughout. In addition, the percent effect (mortality, anti-feeding or growth inhibition) at 12.5 ppm in data set [3] is not below 80%.
Compound `CCSc1cc(I)sc1-c1nc2cc(C(F)(F)F)ncc2n1C` [Example I-12, 2-(3-ethylsulfanyl-5-iodo-2-thienyl)-3-methyl-6-(trifluoromethyl)imidazo[4,5-c]pyridine] had a melting point of 61 to 63 °C.
As to `CCS(=O)(=O)c1cc(-c2ccc(C(F)(F)F)cc2)sc1-c1nc2cc(C(F)(F)F)ncc2n1C` [Example P-1, 2-[3-ethylsulfonyl-5-[4-(trifluoromethyl)phenyl]-2-thienyl]-3-methyl-6-(trifluoromethyl)imidazo[4,5-c]pyridine], in data set [1], the percent control (mortality, anti-feedant effect or growth inhibition) at 200 ppm was not below 80%. Moreover, in [1] (larval feeding/contact activity, mortality only, test as in B9), the “BP80 (Breakpoint, lowest concentration which gives 80% larval mortality) Spodoptera littoralis” value is given as 0.8 ppm. For the same compound, the mortality at 200 ppm in [5] is not below 80%. For the same compound, the percent effect (mortality or growth inhibition) at 200 ppm in data set [2], in [6] and in data set [4] was not below 80% throughout. In addition, the “BP80 (Breakpoint, lowest concentration which gives 80% larval mortality) Plutella xylostella” value in [2] (larval feeding/contact activity, mortality only, test as in B8) was 0.8 ppm. Further, the percent effect (mortality, anti-feeding or growth inhibition) at 12.5 ppm in [3] is not below 80%. Further, the “BP80 (Breakpoint, lowest concentration which gives 80% larval mortality) Diabrotica balteata” value in data set [4] (larval feeding/contact activity, mortality only, test as in B2) is 0.8 ppm.
`CCS(=O)(=O)c1nc(-c2ccc(Cl)cc2)sc1-c1nc2cc(C(F)(F)F)ncc2n1C` [Example P-4, 2-(4-chlorophenyl)-4-ethylsulfonyl-5-[3-methyl-6-(trifluoromethyl)imidazo[4,5-c]pyridin-2-yl]thiazole] yielded a percent control (mortality, anti-feedant effect or growth inhibition) at 200 ppm in data set [1] not below 80%. The mortality at 200 ppm in [5], in [7] and in data set [8] was not below 80% in each case. The percent effect (mortality or growth inhibition) at 200 ppm in [2], in [6] and in [4] was not below 80% throughout. For the same compound, the percent effect (mortality, anti-feeding or growth inhibition) at 12.5 ppm in data set [3] is not below 80%.
The compound `CCS(=O)(=O)c1cc(-c2ccc(Cl)cc2)sc1-c1nc2cc(C(F)(F)F)ncc2n1C` [Example P-5, 2-[5-(4-chlorophenyl)-3-ethylsulfonyl-2-thienyl]-3-methyl-6-(trifluoromethyl)imidazo[4,5-c]pyridine] had a percent control (mortality, anti-feedant effect or growth inhibition) at 200 ppm in data set [1] not below 80%. For the same compound, the mortality at 200 ppm in data set [5], in data set [9], in data set [7] and in [8] was not below 80% in each case. Further, the percent effect (mortality or growth inhibition) at 200 ppm in data set [2], in data set [6] and in data set [4] was not below 80% each time. Also, the percent effect (mortality, anti-feeding or growth inhibition) at 12.5 ppm in data set [3] is not below 80%.
In [1], `CCS(=O)(=O)c1nc(-n2ccc(C(F)(F)F)n2)sc1-c1nc2cc(C(F)(F)F)ncc2n1C` [Example P-10, 4-ethylsulfonyl-5-[3-methyl-6-(trifluoromethyl)imidazo[4,5-c]pyridin-2-yl]-2-[3-(trifluoromethyl)pyrazol-1-yl]thiazole] gave a percent control (mortality, anti-feedant effect or growth inhibition) at 200 ppm not below 80%. The mortality at 200 ppm in data set [5], in data set [9], in [7] and in [8] was not below 80% in each case. Moreover, the percent effect (mortality or growth inhibition) at 200 ppm in [6] and in data set [4] was not below 80% each time. Further, the percent effect (mortality, anti-feeding or growth inhibition) at 12.5 ppm in [3] is not below 80%.
In turn, `CCSc1nc(-c2ncccn2)sc1-c1nc2cc(C(F)(F)F)ncc2n1C` [Example P-11] gave a melting point of 230 to 232 °C.
Compound `CCS(=O)(=O)c1cc(-c2ccc(Cl)cc2)sc1-c1nc2cc(SC(F)(F)F)ncc2n1C` [Example P-15] displayed a percent control (mortality, anti-feedant effect or growth inhibition) at 200 ppm in data set [1] not below 80%. Further, the mortality at 200 ppm in [5], in [9], in [7] and in data set [8] was not below 80% throughout. In addition, the percent effect (mortality or growth inhibition) at 200 ppm in data set [2], in data set [6] and in data set [4] was not below 80% each time. In addition, the percent effect (mortality, anti-feeding or growth inhibition) at 12.5 ppm in data set [3] was not below 80%.
The compound `CCSc1cc(-c2ccc(Cl)cc2)sc1-c1nc2cc(C(F)(F)F)nnc2n1C` [Example P-17, 6-[5-(4-chlorophenyl)-3-ethylsulfanyl-2-thienyl]-7-methyl-3-(trifluoromethyl)imidazo[4,5-c]pyridazine] displayed a melting point of 205 to 207 °C.
Compound `CCS(=O)(=O)c1cc(-c2ccc(Cl)cc2)sc1-c1nc2cc(C(F)(F)F)nnc2n1C` [Example P-18, 6-[5-(4-chlorophenyl)-3-ethylsulfonyl-2-thienyl]-7-methyl-3-(trifluoromethyl)imidazo[4,5-c]pyridazine] returned a percent control (mortality, anti-feedant effect or growth inhibition) at 200 ppm in data set [1] not below 80%. Further, the mortality at 200 ppm in [5], in [9], in data set [7] and in data set [8] was not below 80% each time. Also, the percent effect (mortality or growth inhibition) at 200 ppm in data set [2], in [6] and in [4] was not below 80% in each case. Also, in [3], the percent effect (mortality, anti-feeding or growth inhibition) at 12.5 ppm is not below 80%.
